Laboratory results from ChEMBL document CHEMBL6127107, “Oleanolic acid derivatives against drug-resistant bacteria and fungi by multi-targets to avoid drug resistance” (Eur J Med Chem, 2024).
≈ marks a conversion by molar mass, not a printed value.

Assays:
Assay type in all cases: functional
Staphylococcus aureus [1] = assay: Antimicrobial activity against methicillin-resistant Staphylococcus aureus 003
Enterococcus faecalis = assay: Antimicrobial activity against vancomycin resistant Enterococcus faecalis ATCC 51299
Escherichia coli = assay: Antimicrobial activity against Escherichia coli
Staphylococcus aureus [2] = assay: Antimicrobial activity against methicillin-resistant Staphylococcus aureus 011
Staphylococcus aureus [3] = assay: Antimicrobial activity against Staphylococcus aureus 29
Pseudomonas aeruginosa = assay: Antimicrobial activity against Pseudomonas aeruginosa
Staphylococcus aureus [4] = assay: Antimicrobial activity against Staphylococcus aureus 10
Staphylococcus aureus [5] = assay: Antimicrobial activity against Staphylococcus aureus 31
Candida albicans = assay: Antimicrobial activity against fluconazole-resistant Candida albicans

Row | SMILES | MIC (Staphylococcus aureus [1]) [µg/mL] | MIC (Enterococcus faecalis) [µg/mL] | MIC (Escherichia coli) [µg/mL] | MIC (Staphylococcus aureus [2]) [µg/mL] | MIC (Staphylococcus aureus [3]) [µg/mL] | MIC (Pseudomonas aeruginosa) [µg/mL] | MIC (Staphylococcus aureus [4]) [µg/mL] | MIC (Staphylococcus aureus [5]) [µg/mL] | MIC (Candida albicans) [µg/mL]
1 | C[C@H]1[C@H](C)CC[C@]2(C)CC[C@]3(C)C(=CC[C@@H]4[C@@]5(C)CC[C@H](O)C(C)(C)[C@@H]5CC[C@]43C)[C@H]12 | > 512 | > 512 |  |  |  |  |  |  | 
2 | CCCCCCC(=O)O[C@H]1CC[C@]2(C)[C@H]3CC=C4[C@@H]5CC(C)(C)CC[C@]5(C(=O)O)CC[C@@]4(C)[C@]3(C)CC[C@H]2C1(C)C | > 64 | > 64 | > 64 | > 64 | > 64 | > 64 | > 64 | > 64 | > 64
3 | CCCCC(=O)O[C@H]1CC[C@]2(C)[C@H]3CC=C4[C@@H]5CC(C)(C)CC[C@]5(C(=O)O)CC[C@@]4(C)[C@]3(C)CC[C@H]2C1(C)C | > 64 | > 64 | > 64 | > 64 | > 64 | > 64 | > 64 | > 64 | > 64
4 | CC1(C)CC[C@]2(C(=O)O[C@@H]3O[C@H](CO)[C@H](O)[C@H](O)[C@H]3O)CC[C@]3(C)C(=CC[C@@H]4[C@@]5(C)CC[C@H](O[C@@H]6O[C@H](C(=O)O)[C@@H](O)[C@H](O)[C@H]6O)C(C)(C)[C@@H]5CC[C@]43C)[C@@H]2C1 | > 512 | > 512 |  |  |  |  |  |  | 
5 | CC(=O)O[C@H]1CC[C@]2(C)[C@H]3CC=C4[C@@H]5CC(C)(C)CC[C@]5(C(=O)N5CCCCC5)CC[C@@]4(C)[C@]3(C)CC[C@H]2C1(C)C | > 64 | > 64 | > 64 | > 64 | > 64 | > 64 | > 64 | > 64 | > 64
6 | CC1(C)C(OC(=O)c2ccccc2)CC[C@]2(C)C3=C([C@@H](O)C[C@@H]12)[C@@]1(C)CC[C@@]2(C)CC[C@@](C)(COC(=O)c4ccccc4)C[C@H]2[C@]1(C)CC3 (stereo not given in full) | > 512 | > 512 |  |  |  |  |  |  | 
7 | C[C@H]1[C@H](C)CC[C@]2(C(=O)O)CC[C@]3(C)C(=CC[C@@H]4[C@@]5(C)C[C@@H](O)[C@H](O)[C@@](C)(CO)[C@@H]5CC[C@]43C)[C@H]12 [ASIATIC ACID] | 16 (≈ 32.7 µM) | 32 (≈ 65.5 µM) |  |  |  |  |  |  | 
8 | CC1(C)[C@@H](O[C@@H]2O[C@H](C(=O)O)[C@@H](O)[C@H](O[C@@H]3O[C@H](C(=O)O)[C@@H](O)[C@H](O)[C@H]3O)[C@H]2O)CC[C@]2(C)[C@H]3C(=O)C=C4[C@@H]5C[C@@](C)(C(=O)O)CC[C@]5(C)CC[C@@]4(C)[C@]3(C)CC[C@@H]12 [GLYCYRRHIZINIC ACID] | > 512 | > 512 |  |  |  |  |  |  | 
9 | CC1(C)CC[C@]2(C(=O)O)CC[C@]3(C)C(=CC[C@@H]4[C@@]5(C)CCC(=O)C(C)(C)[C@@H]5CC[C@]43C)[C@@H]2C1 [OLEANONIC ACID] | 256 (≈ 563 µM) | 512 (≈ 1130 µM) |  |  |  |  |  |  | 
10 | CC1(C)CC[C@]2(C(=O)O)CC[C@]3(C)C(=CC[C@@H]4[C@@]5(C)CC[C@H](OC(=O)c6ccccc6)C(C)(C)[C@@H]5CC[C@]43C)[C@@H]2C1 | > 64 | > 64 | > 64 | > 64 | > 64 | > 64 | > 64 | > 64 | > 64
11 | CC1(C)CC[C@]2(C(=O)O)CC[C@]3(C)C(=CC[C@@H]4[C@@]5(C)CC[C@H](OCC(O)CN6CCCCC6)C(C)(C)[C@@H]5CC[C@]43C)[C@@H]2C1 (stereo not given in full) | > 64 | > 64 | > 64 | > 64 | > 64 | > 64 | > 64 | > 64 | > 64
12 | CCCC(=O)O[C@H]1CC[C@]2(C)[C@H]3CC=C4[C@@H]5CC(C)(C)CC[C@]5(C(=O)O)CC[C@@]4(C)[C@]3(C)CC[C@H]2C1(C)C | > 64 | > 64 | > 64 | > 64 | > 64 | > 64 | > 64 | > 64 | > 64
13 | C[C@H]1[C@H](C)CC[C@]2(C(=O)O)CC[C@]3(C)C(=CC[C@@H]4[C@@]5(C)C[C@@H](O)[C@H](O)C(C)(C)[C@@H]5CC[C@]43C)[C@H]12 [COROSOLIC ACID] | 16 (≈ 33.8 µM) | 32 (≈ 67.7 µM) |  |  |  |  |  |  | 
14 | CC(=O)O[C@H]1CC[C@]2(C)[C@H]3CC=C4[C@@H]5CC(C)(C)CC[C@]5(C(=O)NCc5ccoc5)CC[C@@]4(C)[C@]3(C)CC[C@H]2C1(C)C | > 64 | > 64 | > 64 | > 64 | > 64 | > 64 | > 64 | > 64 | > 64
15 | C[C@@H]1CC[C@]2(C(=O)O)CC[C@]3(C)C(=CC[C@@H]4[C@@]5(C)CC[C@H](O)[C@@](C)(CO)[C@@H]5CC[C@]43C)[C@@H]2[C@]1(C)O [ROTUNDIC ACID] | 128 (≈ 262 µM) | 256 (≈ 524 µM) |  |  |  |  |  |  | 
16 | C=C1CC[C@]2(C)CC[C@]3(C)[C@H](CC[C@@H]4[C@@]5(C)CC[C@H](OC(C)=O)C(C)(C)[C@@H]5CC[C@]43C)[C@H]2[C@@H]1C [TARAXASTEROL ACETATE] | > 512 | > 512 |  |  |  |  |  |  | 
17 | COC(=O)[C@@]1(C)CC[C@]2(C(=O)OC3O[C@H](CO)[C@@H](O)[C@H](O)[C@H]3O)CC[C@]3(C)C(=CC[C@@H]4[C@@]5(C)CC[C@H](O[C@@H]6OC[C@@H](O)[C@H](O)[C@H]6O)[C@@](C)(CO)[C@@H]5CC[C@]43C)[C@@H]2C1 (stereo not given in full) | > 512 | > 512 |  |  |  |  |  |  | 
18 | C[C@H]1[C@H](C)CC[C@]2(C(=O)O)CC[C@]3(C)C(=CC[C@@H]4[C@@]5(C)CCC(=O)C(C)(C)[C@@H]5CC[C@]43C)[C@H]12 [URSONIC ACID] | 128 (≈ 282 µM) | 256 (≈ 563 µM) |  |  |  |  |  |  | 
19 | CC1(C)CC[C@]2(C(=O)O)CC[C@]3(C)C(=CC[C@@H]4[C@@]5(CO)C[C@@H](O)[C@H](O)[C@@](C)(CO)[C@@H]5CC[C@]43C)[C@@H]2C1 | > 512 | > 512 |  |  |  |  |  |  | 
20 | C[C@H]1[C@H](C)CC[C@]2(C(=O)O)CC[C@]3(C)C(=CC[C@@H]4[C@@]5(C)CC[C@H](O)C(C)(C)[C@@H]5CC[C@]43C)[C@H]12 [URSOLIC ACID] | 64 (≈ 140 µM) | 64 (≈ 140 µM) |  |  |  |  |  |  | 
21 | CC1(C)CC[C@]2(C(=O)O)CC[C@]3(C)C(=CC[C@@H]4[C@@]5(C)CC[C@H](O[C@@H]6O[C@H](C(=O)O)[C@@H](O)[C@H](O[C@@H]7OC[C@@H](O)[C@H](O)[C@H]7O)[C@H]6O)C(C)(C)[C@@H]5CC[C@]43C)[C@@H]2C1 | > 512 | > 512 |  |  |  |  |  |  | 
22 | C[C@H]1[C@H](C)CC[C@]2(C)CC[C@]3(C)C(=CC[C@@H]4[C@@]5(C)CC[C@@H](O)[C@](C)(C(=O)O)[C@@H]5CC[C@]43C)[C@H]12 [BOSWELLIC ACID] | 8 (≈ 17.5 µM) | 8 (≈ 17.5 µM) |  |  |  |  |  |  | 
23 | C[C@H]1[C@H](C)CC[C@]2(C)CC[C@]3(C)C(=CC(=O)[C@@H]4[C@@]5(C)CC[C@@H](O)[C@](C)(C(=O)O)[C@@H]5CC[C@]43C)[C@H]12 [11-KETO BOSWELLIC ACID] | 16 (≈ 34 µM) | 32 (≈ 68 µM) |  |  |  |  |  |  | 
